Test results from paper PMC7402526, “An in vitro quantitative systems pharmacology approach for deconvolving mechanisms of drug-induced, multilineage cytopenias” (PLoS Computational Biology, 2020).

Assays:
Assay type in all cases: cell-based, human
[1] = system: hematopoietic stem cells (HSCs); assay: Multi-lineage toxicity assay (MLTA), HSCs: concentration-response and QSP model fit; design: EmaxAP,HSC / EmaxT,HSC / Emax_drug_HSC: unitless, 0–2; ≤1 anti-proliferative, >1 adds cell killing
Summary of the method: (§1)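 Values derive from fitting a QSP Emax model (EmaxT 0–2, above 1 denoting added cell killing) to vehicle-normalized lineage counts. Counts were obtained by 17-parameter flow after 6-day culture of human bone marrow CD34+ cells with test article.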

[2] = system: granulocyte progenitor (Gran-lin prog); assay: MLTA, GranP: concentration-response and QSP model fit; conditions: Homo sapiens, 144 h
Summary of the method: (§2)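 Freeze-thawed primary human bone marrow CD34+ cells were cultured 6 days in SFEM II with a cytokine cocktail, drug added on day 0. Subsets were counted by 17-parameter flow cytometry with TruCount beads and normalized to vehicle wells. An Emax QSP model (Emax 0–2, L1 regularization) was fitted to these counts.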

[3] = system: monocyte progenitors (monocyte prog); assay: MLTA, MonoP: concentration-response and QSP model fit; conditions: Homo sapiens, Monocyte, 144 h
Summary of the method: as §2

[4] = system: monocytes (monocyte-lin); assay: MLTA, Mono: concentration-response and QSP model fit; conditions: Homo sapiens, Monocyte, 144 h
Summary of the method: as §2

[5] = system: neutrophils (neutrophil-lin); assay: MLTA, Neut: concentration-response and QSP model fit; conditions: Homo sapiens, Neutrophil, 144 h
Summary of the method: as §1

[6] = system: early erythroid cells (Eryth I); assay: MLTA, ErythI: concentration-response and QSP model fit; conditions: Homo sapiens, 144 h
Summary of the method: as §2

[7] = system: B cells (B-lin); assay: MLTA, B-lin: concentration-response and QSP model fit; conditions: Homo sapiens, B-cell, 144 h
Summary of the method: as §1

[8] = QSP model fit of 6-day MLTA data

CN(C)C(=O)c1cc2cnc(Nc3ccc(N4CCNCC4)cn3)nc2n1C1CCCC1 [ribociclib]
EC50 ([1]; Homo sapiens, Hematopoietic stem cell, 144 h, QSP model fit of 6-day MLTA data): 373 nM
activity at 0.0002 µM ([1]; Homo sapiens, Hematopoietic stem cell, 144 h, dose 0.2 nM, 6 days, normalized to vehicle control, read-out: HSCs normalized cell count): 90.3%
activity at 0.001 µM ([1]; Homo sapiens, Hematopoietic stem cell, 144 h, dose 1 nM, 6 days, normalized to vehicle control, read-out: HSCs normalized cell count): 93.9%
activity at 0.005 µM ([1]; Homo sapiens, Hematopoietic stem cell, 144 h, dose 5 nM, 6 days, normalized to vehicle control, read-out: HSCs normalized cell count): 107%
activity at 0.025 µM ([1]; Homo sapiens, Hematopoietic stem cell, 144 h, dose 25 nM, 6 days, normalized to vehicle control, read-out: HSCs normalized cell count): 98.7%
activity at 0.1 µM ([1]; Homo sapiens, Hematopoietic stem cell, 144 h, dose 100 nM, 6 days, normalized to vehicle control, read-out: HSCs normalized cell count): 89.4%
activity at 0.5 µM ([1]; Homo sapiens, Hematopoietic stem cell, 144 h, dose 500 nM, 6 days, normalized to vehicle control, read-out: HSCs normalized cell count): 67.7%
activity at 2.5 µM ([1]; Homo sapiens, Hematopoietic stem cell, 144 h, dose 2500 nM, 6 days, normalized to vehicle control, read-out: HSCs normalized cell count): 35.2%
Emax ([1]; Homo sapiens, Hematopoietic stem cell, 144 h, parameter from QSP model fitting, read-out: Emax_drug_HSC): 48.9%
EmaxAP,HSC ([1]; anti-proliferation component, min(1, EmaxT)): 0.489
EC50 ([2]; QSP model fit of 6-day MLTA data, read-out: EC50GranP): 21.4 nM
activity at 0.0002 µM ([2]; dose 0.2 nM, 6 days, normalized to vehicle control, read-out: GranPs normalized cell count): 87.1%
activity at 0.001 µM ([2]; dose 1 nM, 6 days, normalized to vehicle control, read-out: GranPs normalized cell count): 105%
activity at 0.005 µM ([2]; dose 5 nM, 6 days, normalized to vehicle control, read-out: GranPs normalized cell count): 104%
activity at 0.025 µM ([2]; dose 25 nM, 6 days, normalized to vehicle control, read-out: GranPs normalized cell count): 81.3%
activity at 0.1 µM ([2]; dose 100 nM, 6 days, normalized to vehicle control, read-out: GranPs normalized cell count): 70.3%
activity at 0.5 µM ([2]; dose 500 nM, 6 days, normalized to vehicle control, read-out: GranPs normalized cell count): 34.4%
activity at 2.5 µM ([2]; dose 2500 nM, 6 days, normalized to vehicle control, read-out: GranPs normalized cell count): 10.8%
Emax ([2]; parameter from QSP model fitting, read-out: Emax_drug_GranP): 6.43%
activity at 0.0002 µM ([3]; dose 0.2 nM, 6 days, normalized to vehicle control, read-out: MonoPs normalized cell count): 100%
activity at 0.001 µM ([3]; dose 1 nM, 6 days, normalized to vehicle control, read-out: MonoPs normalized cell count): 108%
activity at 0.005 µM ([3]; dose 5 nM, 6 days, normalized to vehicle control, read-out: MonoPs normalized cell count): 99.8%
activity at 0.025 µM ([3]; dose 25 nM, 6 days, normalized to vehicle control, read-out: MonoPs normalized cell count): 80.2%
activity at 0.1 µM ([3]; dose 100 nM, 6 days, normalized to vehicle control, read-out: MonoPs normalized cell count): 45.6%
activity at 0.5 µM ([3]; dose 500 nM, 6 days, normalized to vehicle control, read-out: MonoPs normalized cell count): 16.7%
activity at 2.5 µM ([3]; dose 2500 nM, 6 days, normalized to vehicle control, read-out: MonoPs normalized cell count): 6.97%
Emax ([3]; parameter from QSP model fitting, read-out: Emax_drug_MonoP): 0.0352%
EC50 [4, 8]: 180 nM
activity at 0.0002 µM ([4]; dose 0.2 nM, 6 days, normalized to vehicle control, read-out: Mon normalized cell count): 84.3%
activity at 0.001 µM ([4]; dose 1 nM, 6 days, normalized to vehicle control, read-out: Mon normalized cell count): 96.7%
activity at 0.005 µM ([4]; dose 5 nM, 6 days, normalized to vehicle control, read-out: Mon normalized cell count): 92.1%
activity at 0.025 µM ([4]; dose 25 nM, 6 days, normalized to vehicle control, read-out: Mon normalized cell count): 78.1%
activity at 0.1 µM ([4]; dose 100 nM, 6 days, normalized to vehicle control, read-out: Mon normalized cell count): 55.4%
activity at 0.5 µM ([4]; dose 500 nM, 6 days, normalized to vehicle control, read-out: Mon normalized cell count): 31.4%
activity at 2.5 µM ([4]; dose 2500 nM, 6 days, normalized to vehicle control, read-out: Mon normalized cell count): 8.51%
Emax ([4]; parameter from QSP model fitting, read-out: Emax_drug_Mono): 19.5%
EC50 [5, 8]: 178 nM
activity at 0.0002 µM ([5]; dose 0.2 nM, 6 days, normalized to vehicle control, read-out: Neut normalized cell count): 77.2%
activity at 0.001 µM ([5]; dose 1 nM, 6 days, normalized to vehicle control, read-out: Neut normalized cell count): 83.1%
activity at 0.005 µM ([5]; dose 5 nM, 6 days, normalized to vehicle control, read-out: Neut normalized cell count): 96.4%
activity at 0.025 µM ([5]; dose 25 nM, 6 days, normalized to vehicle control, read-out: Neut normalized cell count): 65.4%
activity at 0.1 µM ([5]; dose 100 nM, 6 days, normalized to vehicle control, read-out: Neut normalized cell count): 52.7%
activity at 0.5 µM ([5]; dose 500 nM, 6 days, normalized to vehicle control, read-out: Neut normalized cell count): 25.1%
activity at 2.5 µM ([5]; dose 2500 nM, 6 days, normalized to vehicle control, read-out: Neut normalized cell count): 4.85%
Emax ([5]; parameter from QSP model fitting, read-out: Emax_drug_Neut): 13.9%
activity at 0.0002 µM ([6]; dose 0.2 nM, 6 days, normalized to vehicle control, read-out: ErythI normalized cell count): 101%
activity at 0.001 µM ([6]; dose 1 nM, 6 days, normalized to vehicle control, read-out: ErythI normalized cell count): 102%
activity at 0.005 µM ([6]; dose 5 nM, 6 days, normalized to vehicle control, read-out: ErythI normalized cell count): 108%
activity at 0.025 µM ([6]; dose 25 nM, 6 days, normalized to vehicle control, read-out: ErythI normalized cell count): 85.8%
activity at 0.1 µM ([6]; dose 100 nM, 6 days, normalized to vehicle control, read-out: ErythI normalized cell count): 69%
activity at 0.5 µM ([6]; dose 500 nM, 6 days, normalized to vehicle control, read-out: ErythI normalized cell count): 31.2%
activity at 2.5 µM ([6]; dose 2500 nM, 6 days, normalized to vehicle control, read-out: ErythI normalized cell count): 9.42%
Emax ([6]; parameter from QSP model fitting, read-out: Emax_drug_ErythroidI): 0.05%
EC50 [7, 8]: 35.8 nM
activity at 0.0002 µM ([7]; dose 0.2 nM, 6 days, normalized to vehicle control, read-out: B-lin normalized cell count): 74.3%
activity at 0.001 µM ([7]; dose 1 nM, 6 days, normalized to vehicle control, read-out: B-lin normalized cell count): 107%
activity at 0.005 µM ([7]; dose 5 nM, 6 days, normalized to vehicle control, read-out: B-lin normalized cell count): 79.4%
activity at 0.025 µM ([7]; dose 25 nM, 6 days, normalized to vehicle control, read-out: B-lin normalized cell count): 61.2%
activity at 0.1 µM ([7]; dose 100 nM, 6 days, normalized to vehicle control, read-out: B-lin normalized cell count): 46.3%
activity at 0.5 µM ([7]; dose 500 nM, 6 days, normalized to vehicle control, read-out: B-lin normalized cell count): 28%
activity at 2.5 µM ([7]; dose 2500 nM, 6 days, normalized to vehicle control, read-out: B-lin normalized cell count): 28.3%
Emax ([7]; parameter from QSP model fitting, read-out: Emax_drug_B): 30.5%
